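Five compound concentrations were applied to cells in 96-well plates for 48 hours; endpoints were derived by simple linear interpolation of the resulting dose-response curve. GI50 marks 50% less growth.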 Calls of active or inactive are those of the source. No stated cut-off is given here; in the data, active = GI50 up to about 1.1 µM and inactive = higher.
Columns and labels:
Test in all cases: inhibition of tumour cell growth, NCI panel, 48 h
[1] = tested on: SF-539
[2] = tested on: SK-MEL-2
[3] = tested on: SW-620
[4] = tested on: A498
[5] = tested on: M19-MEL
[6] = tested on: ACHN
[7] = tested on: Malme-3M
[8] = tested on: A549
[9] = tested on: RXF 393
[10] = tested on: IGROV-1
[11] = tested on: HCT-15
[12] = tested on: DMS-273
[13] = tested on: DLD-1
[14] = tested on: SK-OV-3
[15] = tested on: SNB-19
[16] = tested on: KM12
[17] = tested on: SR
[18] = tested on: CAKI-1
[19] = tested on: HCC 2998
[20] = tested on: HCT-116
[21] = tested on: UO-31
[22] = tested on: TK-10
[23] = tested on: HL-60
[24] = tested on: XF498
[25] = tested on: RPMI-8226
[26] = tested on: SN12C
[27] = tested on: SF-268
[28] = tested on: CCRF-CEM
[29] = tested on: 786-0
[30] = tested on: M14
[31] = tested on: SNB-75
[32] = tested on: U-251
[33] = tested on: HOP-62
[34] = tested on: HT-29
[35] = tested on: COLO 205
[36] = tested on: OVCAR-8
[37] = tested on: K562
[38] = tested on: UACC-257
[39] = tested on: SF-295
[40] = tested on: LXFL 529
[41] = tested on: EKVX
[42] = tested on: UACC-62
[43] = tested on: OVCAR-4
[44] = tested on: NCI-H460
[45] = tested on: SK-MEL-5
[46] = tested on: KM-20L2
[47] = tested on: LOX IMVI
[48] = tested on: DMS-114
[49] = tested on: MOLT-4
[50] = tested on: SK-MEL-28
[51] = tested on: OVCAR-5
[52] = tested on: NCI-H226
[53] = tested on: HOP-18
[54] = tested on: HOP-92
[55] = tested on: OVCAR-3
[56] = tested on: NCI-H522
[57] = tested on: NCI-H23
[58] = tested on: SNB-78

SMILES: O=[N+]([O-])c1ccc(C(O)/C(=N/O)c2nc3ccc(Cl)cc3nc2O)cc1 (stereo unspecified)
- GI50 [1]: > 100 µM (inactive)
- GI50 [2]: > 100 µM (inactive)
- GI50 [3]: > 100 µM (inactive)
- GI50 [4]: > 100 µM (inactive)
- GI50 [5]: > 100 µM (inactive)
- GI50 [6]: > 100 µM (inactive)
- GI50 [7]: > 100 µM (inactive)
- GI50 [8]: > 100 µM (inactive)
- GI50 [9]: > 100 µM (inactive)
- GI50 [10]: > 100 µM (inactive)
- GI50 [11]: > 100 µM
- GI50 [12]: > 100 µM (inactive)
- GI50 [13]: > 100 µM (inactive)
- GI50 [14]: > 100 µM (inactive)
- GI50 [15]: > 100 µM (inactive)
- GI50 [16]: > 100 µM (inactive)
- GI50 [17]: > 100 µM (inactive)
- GI50 [18]: > 100 µM (inactive)
- GI50 [19]: > 100 µM (inactive)
- GI50 [20]: > 100 µM (inactive)
- GI50 [21]: > 100 µM (inactive)
- GI50 [22]: > 100 µM (inactive)
- GI50 [23]: > 100 µM (inactive)
- GI50 [24]: > 100 µM (inactive)
- GI50 [25]: > 100 µM (inactive)
- GI50 [26]: > 100 µM (inactive)
- GI50 [27]: > 100 µM (inactive)
- GI50 [28]: > 100 µM (inactive)
- GI50 [29]: > 100 µM (inactive)
- GI50 [30]: > 100 µM (inactive)
- GI50 [31]: > 100 µM (inactive)
- GI50 [32]: > 100 µM (inactive)
- GI50 [33]: > 100 µM (inactive)
- GI50 [34]: > 100 µM (inactive)
- GI50 [35]: > 100 µM (inactive)
- GI50 [36]: > 100 µM (inactive)
- GI50 [37]: > 100 µM (inactive)
- GI50 [38]: > 100 µM (inactive)
- GI50 [39]: > 100 µM (inactive)
- GI50 [40]: > 100 µM (inactive)
- GI50 [41]: > 100 µM (inactive)
- GI50 [42]: > 100 µM (inactive)
- GI50 [43]: > 100 µM (inactive)
- GI50 [44]: > 100 µM (inactive)
- GI50 [45]: > 100 µM (inactive)
- GI50 [46]: > 100 µM (inactive)
- GI50 [47]: > 100 µM (inactive)
- GI50 [48]: > 100 µM (inactive)
- GI50 [49]: > 100 µM (inactive)

SMILES: CC(C)(CN1C(=O)C(Cl)=C(Cl)C1=O)CN1C(=O)C(Cl)=C(Cl)C1=O
- GI50 [1]: 20.1 µM (inactive)
- GI50 [2]: 18.8 µM (inactive)
- GI50 [3]: 5 µM (inactive)
- GI50 [50]: 7.48 µM (inactive)
- GI50 [4]: 28.6 µM (inactive)
- GI50 [5]: 7.66 µM (inactive)
- GI50 [6]: 9.44 µM (inactive)
- GI50 [7]: 5.74 µM (inactive)
- GI50 [8]: 35.5 µM (inactive)
- GI50 [9]: 6 µM (inactive)
- GI50 [10]: 18.9 µM (inactive)
- GI50 [11]: 8.63 µM
- GI50 [12]: 6.92 µM (inactive)
- GI50 [13]: 3.38 µM (inactive)
- GI50 [14]: 33.3 µM (inactive)
- GI50 [51]: 19.8 µM (inactive)
- GI50 [15]: 23 µM (inactive)
- GI50 [16]: 24.2 µM (inactive)
- GI50 [17]: 2.58 µM (inactive)
- GI50 [18]: 8.15 µM (inactive)
- GI50 [19]: 12 µM (inactive)
- GI50 [20]: 11.5 µM (inactive)
- GI50 [21]: 31.6 µM (inactive)
- GI50 [22]: 9.02 µM (inactive)
- GI50 [52]: 22.5 µM (inactive)
- GI50 [23]: 0.552 µM (active)
- GI50 [53]: 19.4 µM (inactive)
- GI50 [25]: 1.71 µM (inactive)
- GI50 [26]: 11.7 µM (inactive)
- GI50 [27]: 19.1 µM (inactive)
- GI50 [28]: 0.264 µM (active)
- GI50 [29]: 11.7 µM (inactive)
- GI50 [30]: 16.6 µM (inactive)
- GI50 [31]: 22.2 µM (inactive)
- GI50 [32]: 18.1 µM (inactive)
- GI50 [54]: 7.64 µM (inactive)
- GI50 [33]: 22.1 µM (inactive)
- GI50 [34]: 13.2 µM (inactive)
- GI50 [35]: 3.23 µM (inactive)
- GI50 [55]: 8.02 µM (inactive)
- GI50 [36]: 6.34 µM (inactive)
- GI50 [37]: 1.64 µM (inactive)
- GI50 [56]: 1.62 µM (inactive)
- GI50 [38]: 13.9 µM (inactive)
- GI50 [39]: 24.3 µM (inactive)
- GI50 [40]: 6.5 µM (inactive)
- GI50 [41]: 19.9 µM (inactive)
- GI50 [42]: 14.1 µM (inactive)
- GI50 [43]: 21.7 µM (inactive)
- GI50 [57]: 11.7 µM (inactive)
- GI50 [44]: 35 µM (inactive)
- GI50 [58]: 19 µM (inactive)
- GI50 [45]: 22.1 µM (inactive)
- GI50 [46]: 16.6 µM (inactive)
- GI50 [47]: 12.2 µM (inactive)
- GI50 [48]: 9.75 µM (inactive)
- GI50 [49]: 0.966 µM (active)

From ChEMBL document CHEMBL1201862, “PubChem BioAssay data set” (2004)
